These are literature values, as cited in PMC12580772, “A First-in-Human Study of ATM Inhibitor Lartesertib as Monotherapy in Patients with Advanced Solid Tumors” (Clinical Cancer Research, 2025).

SMILES strings stand for the structures.

For the data set, the system named is patient-derived xenograft models of triple-negative breast cancer. Further details: method as in PMID 37079339. The note with it: single-agent gartisertib; cited from earlier work.

With `Nc1nn2cc(F)cnc2c1C(=O)Nc1cncc(F)c1N1CCC(C(=O)N2CCN(C3COC3)CC2)CC1` [gartisertib, reference compound], the Tumor control rate is recorded as 27%.
